Laboratory results taken from patent publication US6231885A, “Composition for controlled and sustained transdermal administration” (Permatec Technologie AG, priority 1997, dated 2001).
Entries after “also recorded” stand apart in the source; their conditions may differ.

Assay: In vitro enhancer release, paddle over disk method (apparatus 5, USP 23)
Type: physicochemical
Settings: in words, in vitro and in vivo results
Method: The release of lauric acid and oleic acid was analyzed using paddle over disk method (apparatus 5, USP 23, Drug Release 724).
FIG. 1 schematically shown the apparatus mentioned before. In these experiments we have determined the release profiles of lauric acid and oleic acid from transdermal patches, measuring the remaining drug (by means of HPLC techniques) in samples taken at different time points.
The examples used were: Example 1; Example 2 and Example 3.
The dissolution conditions used were: paddle speed: 50 rpm; temperature: 32° C.; dissolution medium: aqueous solution of sodium dodecyl sulphate 0.3%; volume: 500 ml; sample program: 0.5; 1.0; 2.0; 4.0; 8.0 and 24 h.

| Compound | Release from the adhesive matrix | Release from the adhesive matrix (listed as lauric acid) |
| --- | --- | --- |
| CCCCCCCC/C=C\CCCCCCCC(=O)O [oleic acid] | slow release; also recorded: delivered in small amount and is prone to remain in the adhesive monolithic matrix | – |
| CCCCCCCCCCCC(=O)O [Lauric acid] | rapid release | a great proportion of the amount of lauric acid is delivered at early times |
